Results published in ChEMBL document CHEMBL1201862, “PubChem BioAssay data set” (2004).
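In this assay, cells in 96-well plates receive the compound at five concentrations for 48 hours. Endpoints are linearly interpolated between the surrounding concentrations. GI50 marks 50% less growth.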 Active and inactive are the calls of the source. No stated cut-off is given here; in the data, active = GI50 up to about 1.1 µM and inactive = higher.

Assays:
Test in all cases: NCI anticancer screen, dose series, 48 h
M19-MEL = tested on: M19-MEL
DMS-114 = tested on: DMS-114
HOP-18 = tested on: HOP-18
KM-20L2 = tested on: KM-20L2
XF498 = tested on: XF498
DMS-273 = tested on: DMS-273
SNB-78 = tested on: SNB-78
RXF 631 = tested on: RXF 631

SMILES | GI50 (M19-MEL) | GI50 (DMS-114) | GI50 (HOP-18) | GI50 (KM-20L2) | GI50 (XF498) | GI50 (DMS-273) | GI50 (SNB-78) | GI50 (RXF 631)
Cc1ccccc1NC(=O)CSc1nnc(-c2ccc(/N=C\c3ccc(Cl)cc3)cc2)o1 | > 100 µM (inactive) | > 100 µM (inactive) | > 100 µM (inactive) | > 100 µM (inactive) | > 100 µM (inactive) | > 100 µM (inactive) | > 100 µM (inactive) | 
O=c1c2cc(Br)ccc2nc(CCl)n1-c1ccc(O)c([N+](=O)[O-])c1 | 19.8 µM (inactive) |  |  | 33 µM (inactive) | 15.4 µM (inactive) |  | 22.9 µM (inactive) | > 10 µM (inactive)
C[P+]1(c2ccccc2)CCCCC1 | > 100 µM (inactive) | > 100 µM (inactive) | 0.0484 µM (active) | > 100 µM (inactive) |  | > 100 µM (inactive) | > 100 µM (inactive) | > 100 µM (inactive)
CCC12C=CCN3CC[C@]4(C(=C(C(=O)OC)[C@@H]1Nc1ncnc5c1ncn5C1OC(COC(C)=O)C(OC(C)=O)C1OC(C)=O)Nc1ccccc14)C32 (some centres undefined) | 1.99 µM (inactive) | 1.91 µM (inactive) | 7.64 µM (inactive) | 2.71 µM (inactive) | 3 µM (inactive) | 2.75 µM (inactive) | 3.15 µM (inactive) | 
CN(/N=C/c1cccc2cccnc12)c1ccc([N+](=O)[O-])cc1 | > 100 µM (inactive) | > 100 µM (inactive) | > 100 µM (inactive) | > 100 µM (inactive) | > 100 µM (inactive) | > 100 µM (inactive) | > 100 µM (inactive) | 
Clc1ccc(SCCSCCCCCCCCCCSCCSc2ccc(Cl)cc2)cc1 |  | > 100 µM (inactive) | > 100 µM (inactive) | > 100 µM (inactive) |  | > 100 µM (inactive) | > 100 µM (inactive) | > 100 µM (inactive)
O=C1C(c2ccccc2)=[N+]([O-])c2cc([N+](=O)[O-])c(/C(Cl)=C/c3ccccc3)cc21 | 15.3 µM (inactive) | 8.97 µM (inactive) | 24.1 µM (inactive) |  |  | 18.1 µM (inactive) | 29.4 µM (inactive) | 6.7 µM (inactive)
COc1cc2c(c(OC)c1OC)-c1ccc(OC)c(=O)cc1[C@@H](N(C)C=O)CC2 |  |  | > 100 µM (inactive) | 0.0133 µM (active) | 0.112 µM (active) | 0.0116 µM (active) | 0.0135 µM (active) | 0.0244 µM (active)
CC(C)N(C(=O)C12C3C4C5(C#N)C3C1(C#N)C5C42C#N)C(C)C (centres undefined) | > 100 µM (inactive) | > 100 µM (inactive) | > 100 µM (inactive) | > 100 µM (inactive) | > 100 µM (inactive) | > 100 µM (inactive) | > 100 µM (inactive) | 
C=C1CCCC2OC(OC)CCC12 (centres undefined) | > 100 µM (inactive) | > 100 µM (inactive) | > 100 µM (inactive) | > 100 µM (inactive) | > 100 µM (inactive) | > 100 µM (inactive) | > 100 µM (inactive) | > 100 µM (inactive)
COc1cc(OC)c2c(c1)C(=O)C(CC1(C)OCCCO1)=CC2=O | 3.37 µM (inactive) | 6.11 µM (inactive) | 13 µM (inactive) | 14.1 µM (inactive) | 9.48 µM (inactive) | 7.48 µM (inactive) | 7.96 µM (inactive) | 22.3 µM (inactive)
